Consider 5 compounds from patent publication US20170129864A1, “NEW SIGMA-RECEPTORS LIGANDS WITH ANTI-APOPTOTIC AND/OR PRO-APOPTOTIC PROPERTIES, OVER CELLULAR BIOCHEMICAL MECHANISMS WITH NEUROPROTECTIVE, ANTI-CANCER, ANTI-METASTATIC AND ANTI-(CHRONIC) INFLAMMATORY ACTION” (Anavex Life Sciences Corp., priority 2007, published 2017).

pKi: −log10 of the molar value.

One series deals with σ-1 receptors (Homo sapiens, UniProt Q99720). The series is described as follows: agonistic or antagonistic action on σ-1 receptors.
The target in series [1] is T1, σ-2 receptors (Homo sapiens, UniProt Q5BJF2). The series is described as follows: affinity for σ-2 receptors. It is filed as binding.
The test system of series [2] is Aβ25-35 induced neutotoxicity and oxidative stress. The series is described as follows: Aβ25-35 induced neurotoxicity and oxidative stress. It is filed as in vivo. The following applies: 0.03-1 mg/kg, i.p.
For series [3], the system named is anoxia that is caused by pentylenetetrazole (PTZ). The series is described as follows: protection against pentylenetetrazole (PTZ) induced anoxia and tonic crises. In kind it is in vivo, mice.
Series [4] deals with scopolamine and dizocilpine (MK-801) induced amnesia or amyloid peptide β25-35 (Aβ25-35). Briefly: anti-amnesic action against scopolamine, dizocilpine (MK-801) or Aβ25-35 induced amnesia. It is filed as in vivo. The following applies: per os (po), in mice.
Another series relates to mice. Briefly: forced swimming test. It is filed as in vivo. Details: dose or concentration left out as unconfirmed. The following applies: forced swimming test in mice.
A further series has as its system cancer cells. Briefly: cytotoxic action on cancer cells via apoptosis. It is filed as cell-based. The following applies: depending on the cell line used.
The target of series [5] is T1, σ-2 receptors. Briefly: agonistic action for σ-2.

T1 sequence (Q5BJF2 whole entry): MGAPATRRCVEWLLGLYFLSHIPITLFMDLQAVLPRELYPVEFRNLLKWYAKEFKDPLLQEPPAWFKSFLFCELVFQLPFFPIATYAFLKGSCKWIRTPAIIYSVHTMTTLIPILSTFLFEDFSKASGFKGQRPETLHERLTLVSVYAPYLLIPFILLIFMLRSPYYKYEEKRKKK
Sequence of σ-1 receptors (Q99720 whole entry): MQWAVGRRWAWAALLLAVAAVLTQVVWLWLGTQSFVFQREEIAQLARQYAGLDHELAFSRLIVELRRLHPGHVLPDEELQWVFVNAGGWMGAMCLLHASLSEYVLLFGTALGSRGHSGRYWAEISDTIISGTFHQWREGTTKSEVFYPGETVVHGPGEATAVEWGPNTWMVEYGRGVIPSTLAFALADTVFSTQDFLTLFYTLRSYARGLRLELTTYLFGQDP

As for `CN(C)CC1COC2(C1)C1CC3CC(C1)CC2C3` (stereo not drawn) [AdAE, (DIHYDRO-4-(DIMETHYLAMINOMETHYL)SPIRO{FURANE-2(3H), 2′TRICYCLO[3.3.1.13,7]DECANE}], the “action on σ-1 receptors” value on σ-1 receptors is “weak agonists”.
`CN(C)CC1CCOC1(c1ccccc1)c1ccccc1` (stereo not drawn) [AE37, tetrahydro-N,N-dimethyl-2,2-diphenyl-3-furanomethanamine]: on σ-2 receptors [1], the “affinity for σ-2 receptors” value is given as “no affinity”. Besides, in series [2], the “activity against Aβ25-35 induced neurotoxicity and oxidative stress” value is “very performant”.
With `CNCC1CCOC1(c1ccccc1)c1ccccc1` (stereo not drawn) [AE37 Met, tetrahydro-N-methyl-2,2-diphenyl-3-furanomethanamine], the “protection against anoxia caused by pentylenetetrazole (PTZ)” value in series [3] (in mice) is on record as “exceptional protection”. Besides, the “activity relative to AE37 for the properties mentioned” value in series [3] (mainly neuroprotective action) is reported as “slightly more active than AE37”.
Regarding `CN(C)CC1COC(c2ccccc2)(C23CC4CC(CC(C4)C2)C3)C1` (stereo not drawn) [AdPhAE, 5-(TRICYCLO[3.3.1.13,7]DEC-1-YL)-TETRAHYDRO-N,N-DIMETHYL-5-PHENYL-3-FURANEMETHANAMINE-], the “action on σ-1 receptors” value on σ-1 receptors was “weak agonists”.
Regarding `CN(C)CC1COC(c2ccccc2)(c2ccccc2)C1` (stereo not drawn) [AE14, Tetrahydro-N,N,-dimethyl-5,5-diphenyl-3-furanomethanamine], in series [4], the “anti-amnesic action, active doses from” value is at least 0.03 mg/kg. The pKi (commonly the Ki on a negative log10 scale, so that one unit is a factor of ten) on σ-2 receptors [1] was below 5.00. Further, the “affinity for σ-2 receptors, times lower than for σ-1” value on σ-2 receptors [1] (σ-2 versus σ-1) is recorded as “more than 100 times”. For the same compound, the anti-immobility action result with mice is on record as “very strong anti-immobility action”. Also, in the series on cancer cells, the “concentration at which cytotoxic action on cancer cells is shown” value is on record as “over 200 μM”. For the same compound, the “concentration at which agonistic action for σ-2 is shown” value on σ-2 receptors [5] is listed as “over 10 μM”.
